# Tested on: relapsed or refractory, rituximab-naive or -sensitive follicular B-cell NHL
# Test: Treatment free interval, Vc-R vs rituximab study, by biomarker
# Format: in vivo, human
# Set-up: Treatment Free Interval, Median: unit not given here
# Settings: for Treatment Free Interval, Evt/N / Treatment Free Interval, Median: IRC Review
# Text: Non-Hodgkin lymphoma (NHL) encompasses several unique malignant lymphoid disease entities that vary in clinical behavior, morphologic appearance, immunologic, and molecular phenotype. […] A randomized, open-label, active-controlled, multicenter, multinational, prospective study to compare the efficacy and safety of the combination of bortezomib and rituximab (Vc-R) to single-agent rituximab in subjects who have relapsed or refractory, rituximab-naive or -sensitive follicular B-cell NHL was performed.
# Subjects were centrally randomized to Treatment Groups A (Vc-R) or B (rituximab) in a 1:1 ratio taking into account the following stratification factors: • Follicular Lymphoma International Prognostic Index (FLIPI) score (low [0 or 1 factor], intermediate [2 factors], high [≧3 factors]); • Prior rituximab therapy (yes, no); • Time since last dose of anti-lymphoma therapy (≦1 year, >1 year); • Region (United States/Canada, European Union, Rest of World).
# The following clinical endpoints were included in the analysis within each treatment group and an overall comparison was made with the biomarker-related endpoints: Progression-free survival, defined as the interval between the date of randomization and the date of progressive disease (PD) or death, whichever is first reported in the ITT population; overall survival; overall response rate (complete response [CR]+CR unconfirmed [CRu]+partial response [PR]); overall CR rate (CR+CRu); duration of response; time to next anti-lymphoma therapy; and treatment free interval.
# [1] = 20S % NUCLEAR STAINING 0-20, Female
# [2] = 20S % NUCLEAR STAINING 60-70, Male
# [3] = 20S % NUCLEAR STAINING 60-70, Prior Rituximab Therapy
# [4] = 20S INTENSITY CYTOPLASMIC SIGNAL: ≧3+, European Union
# [5] = CD68 OVERALL POSITIVE: 0-25, 2 Prior Lines of Therapy
# [6] = CD68 OVERALL POSITIVE: 0-25, >1 year since last anti-lymphoma treatment
# [7] = CD68 OVERALL POSITIVE: 0-25, Ann Arbor Stage III
# [8] = CD68 OVERALL POSITIVE: 0-25, Ann Arbor Stage IV
# [9] = CD68 OVERALL POSITIVE: 0-25, European Union
# [10] = CD68 OVERALL POSITIVE: 0-25, Female
# [11] = CD68 OVERALL POSITIVE: 0-25, Intermediate FLIPI Score
# [12] = CD68 OVERALL POSITIVE: 0-25, Low FLIPI Score
# [13] = CD68 OVERALL POSITIVE: 0-25, No High Tumor Burden
# [14] = CD68 OVERALL POSITIVE: 0-25, No Prior Rituximab Therapy
# [15] = CD68 OVERALL POSITIVE: 0-25, No Subgroup
# [16] = CD68 OVERALL POSITIVE: 0-25, Prior Rituximab Therapy
# [17] = CD68 OVERALL POSITIVE: 0-25, White
# [18] = CD68 OVERALL POSITIVE: 0-25, ≦65 years old
# [19] = CD68 OVERALL POSITIVE: >75, Male
# [20] = CD68 POSITIVE FOLLICULAR: 0-25, >1 year since last anti-lymphoma treatment
# [21] = CD68 POSITIVE FOLLICULAR: 0-25, Ann Arbor Stage III
# [22] = CD68 POSITIVE FOLLICULAR: 0-25, Asian
# [23] = CD68 POSITIVE FOLLICULAR: 0-25, Female
# [24] = CD68 POSITIVE FOLLICULAR: 0-25, No High Tumor Burden
# [25] = CD68 POSITIVE FOLLICULAR: 0-25, No Prior Rituximab Therapy
# [26] = CD68 POSITIVE FOLLICULAR: 0-25, No Subgroup
# [27] = CD68 POSITIVE FOLLICULAR: 0-25, White
# [28] = CD68 POSITIVE FOLLICULAR: 0-25, ≦65 years old
# [29] = CD68 POSITIVE PERIFOLLICULAR: 0-25, 2 Prior Lines of Therapy
# [30] = CD68 POSITIVE PERIFOLLICULAR: 0-25, >1 year since last anti-lymphoma treatment
# [31] = CD68 POSITIVE PERIFOLLICULAR: 0-25, Ann Arbor Stage IV
# [32] = CD68 POSITIVE PERIFOLLICULAR: 0-25, Female
# [33] = CD68 POSITIVE PERIFOLLICULAR: 0-25, Intermediate FLIPI Score
# [34] = CD68 POSITIVE PERIFOLLICULAR: 0-25, No High Tumor Burden
# [35] = CD68 POSITIVE PERIFOLLICULAR: 0-25, No Prior Rituximab Therapy
# [36] = CD68 POSITIVE PERIFOLLICULAR: 0-25, No Subgroup
# [37] = CD68 POSITIVE PERIFOLLICULAR: 0-25, White
# [38] = CD68 POSITIVE PERIFOLLICULAR: 0-25, ≦65 years old
# [39] = CD68 POSITIVE PERIFOLLICULAR: 26-50, Other
# [40] = CD68 POSITIVE PERIFOLLICULAR: >75, 1 Prior Line of Therapy
# [41] = CD68 POSITIVE PERIFOLLICULAR: >75, European Union
# [42] = CD68 POSITIVE PERIFOLLICULAR: >75, ≦65 years old
# [43] = P27 % NUCLEI POSITIVE: 0-20, 1 Prior Line of Therapy
# [44] = P27 % NUCLEI POSITIVE: 0-20, Ann Arbor Stage III
# [45] = P27 % NUCLEI POSITIVE: 0-20, ≦65 years old
# [46] = P27 % NUCLEI POSITIVE: 30-50, High Tumor Burden
# [47] = P27 SIGNAL INTENSITY: ≦1+, High Tumor Burden
# [48] = P27 SIGNAL INTENSITY: ≧2+, 5 Prior Lines of Therapy
substance,measurement,setting,value
rituximab,"Treatment Free Interval, Evt/N",[1],35/61
same,"Treatment Free Interval, Median",[1],427
same,"Treatment Free Interval, Evt/N",[2],14/16
same,"Treatment Free Interval, Median",[2],110
same,"Treatment Free Interval, Evt/N",[3],17/21
same,"Treatment Free Interval, Median",[3],190
same,"Treatment Free Interval, Evt/N",[4],34/52
same,"Treatment Free Interval, Median",[4],393
same,duration of treatment free interval,Biomarker positive (PSMB1 P11A heterozygote and CD68 Low),10.1 mo
same,"Treatment Free Interval, Evt/N",[5],6/8
same,"Treatment Free Interval, Median",[5],80
same,"Treatment Free Interval, Evt/N",[6],17/26
same,"Treatment Free Interval, Median",[6],269
same,"Treatment Free Interval, Evt/N",[7],12/16
same,"Treatment Free Interval, Median",[7],135
same,"Treatment Free Interval, Evt/N",[8],15/22
same,"Treatment Free Interval, Median",[8],293
same,"Treatment Free Interval, Evt/N",[9],14/22
same,"Treatment Free Interval, Median",[9],234
same,"Treatment Free Interval, Evt/N",[10],16/26
same,"Treatment Free Interval, Median",[10],293
same,"Treatment Free Interval, Evt/N",[11],7/11
same,"Treatment Free Interval, Median",[11],343
same,"Treatment Free Interval, Evt/N",[12],8/10
same,"Treatment Free Interval, Median",[12],281
same,"Treatment Free Interval, Evt/N",[13],8/14
same,"Treatment Free Interval, Median",[13],411
same,"Treatment Free Interval, Evt/N",[14],12/19
same,"Treatment Free Interval, Median",[14],393
same,"Treatment Free Interval, Evt/N",[15],30/44
same,"Treatment Free Interval, Median",[15],269
same,"Treatment Free Interval, Evt/N",[16],18/25
same,"Treatment Free Interval, Median",[16],115
same,"Treatment Free Interval, Evt/N",[17],24/35
same,"Treatment Free Interval, Median",[17],269
same,"Treatment Free Interval, Evt/N",[18],24/34
same,"Treatment Free Interval, Median",[18],234
same,"Treatment Free Interval, Evt/N","CD68 OVERALL POSITIVE: 51-75, No High Tumor Burden",10/25
same,"Treatment Free Interval, Evt/N",[19],8/9
same,"Treatment Free Interval, Median",[19],272
same,"Treatment Free Interval, Evt/N",[20],22/34
same,"Treatment Free Interval, Median",[20],409
same,"Treatment Free Interval, Evt/N",[21],19/24
same,"Treatment Free Interval, Median",[21],190
same,"Treatment Free Interval, Evt/N",[22],5/6
same,"Treatment Free Interval, Median",[22],148
same,"Treatment Free Interval, Evt/N",[23],23/37
same,"Treatment Free Interval, Median",[23],307
same,"Treatment Free Interval, Evt/N",[24],14/22
same,"Treatment Free Interval, Median",[24],432
same,"Treatment Free Interval, Evt/N",[25],23/36
same,"Treatment Free Interval, Median",[25],344
same,"Treatment Free Interval, Evt/N",[26],40/60
same,"Treatment Free Interval, Median",[26],307
same,"Treatment Free Interval, Evt/N",[27],32/48
same,"Treatment Free Interval, Median",[27],307
same,"Treatment Free Interval, Evt/N",[28],33/46
same,"Treatment Free Interval, Median",[28],190
same,"Treatment Free Interval, Evt/N",[29],6/8
same,"Treatment Free Interval, Median",[29],64
same,"Treatment Free Interval, Evt/N",[30],15/24
same,"Treatment Free Interval, Median",[30],393
same,"Treatment Free Interval, Evt/N",[31],11/15
same,"Treatment Free Interval, Median",[31],234
same,"Treatment Free Interval, Evt/N",[32],19/28
same,"Treatment Free Interval, Median",[32],234
same,"Treatment Free Interval, Evt/N",[33],7/13
same,"Treatment Free Interval, Median",[33],361
same,"Treatment Free Interval, Evt/N",[34],8/13
same,"Treatment Free Interval, Median",[34],361
same,"Treatment Free Interval, Evt/N",[35],12/18
same,"Treatment Free Interval, Median",[35],393
same,"Treatment Free Interval, Evt/N",[36],26/39
same,"Treatment Free Interval, Median",[36],234
same,"Treatment Free Interval, Evt/N",[37],19/27
same,"Treatment Free Interval, Median",[37],361
same,"Treatment Free Interval, Evt/N",[38],20/31
same,"Treatment Free Interval, Median",[38],143
same,"Treatment Free Interval, Evt/N",[39],4/4
same,"Treatment Free Interval, Median",[39],217
same,"Treatment Free Interval, Evt/N",[40],15/18
same,"Treatment Free Interval, Median",[40],297
same,"Treatment Free Interval, Evt/N",[41],13/17
same,"Treatment Free Interval, Median",[41],533
same,"Treatment Free Interval, Evt/N",[42],19/23
same,"Treatment Free Interval, Median",[42],297
same,"Treatment Free Interval, Evt/N",[43],19/26
same,"Treatment Free Interval, Median",[43],293
same,"Treatment Free Interval, Evt/N",[44],14/16
same,"Treatment Free Interval, Median",[44],275
same,"Treatment Free Interval, Evt/N",[45],26/34
same,"Treatment Free Interval, Median",[45],187
same,"Treatment Free Interval, Evt/N",[46],17/22
same,"Treatment Free Interval, Median",[46],280
same,"Treatment Free Interval, Evt/N","P27 % NUCLEI POSITIVE: 60-70, 3 Prior Lines of Therapy",1/6
same,"Treatment Free Interval, Evt/N",[47],16/18
same,"Treatment Free Interval, Median",[47],122
same,"Treatment Free Interval, Evt/N",[48],5/6
same,"Treatment Free Interval, Median",[48],88
same,"Treatment Free Interval, Evt/N","P27 SIGNAL INTENSITY: ≧2+, Prior Rituximab Therapy",60/88
